Data reported in patent publication US20190038641A1, “COMBINATION THERAPY FOR CASTRATION-RESISTANT PROSTRATE CANCER” (The Board of Regents of the University of Texas System, priority 2016, published 2019).

Legend:
Assay type in all cases: cell-based, human
CYP24A1 = test: Regulation of CYP24A1 mRNA expression in C4-2B castration-resistant cells (QRT-PCR)
Source text: FIG. 2. Regulation of CYP24A1 in C4-2B castration resistant cell lines.
CYP24A1 induction by calcitriol has been reported by many laboratories. However, complete suppression of this induction by androgen has not been reported in the literature.
(§1) Dampened vitamin D/VDR-induced CYP24A1 mRNA expression in the presence of androgen is beneficial, as it would prevent ligand degradation, thereby enhancing VDR signaling.

HSD3β-1 = test: Regulation of HSD3β-1 expression (quantitative RT-PCR, Western blot) in castration-resistant prostate cancer cell lines; conditions: C4-2B and C4-2 castration-resistant prostate cancer cell lines; FIG. 1
Source text: FIG. 1. Regulation of HSD3β-1 in C4-2B castration-resistant cell lines.

SULT2B1 = test: QRT-PCR assay of SULT2B1 mRNAs in C4-2B cells; conditions: EB1089 10 nM, R1881 1 nM, FIG. 3B
Source text: as §1

Compound	induction of CYP24A1 (CYP24A1; C4-2B castration-resistant cells, calcitriol with or without androgen, FIG. 2)	expression of HSD3β-1 (messenger RNA and protein levels) (HSD3β-1)	induction of SULT2B1 mRNAs (SULT2B1)	CYP24A1 mRNA expression (induction) (CYP24A1; C4-2B cells, EB1089 10 nM, R1881 1 nM, FIG. 3A) [fold]
C=C1/C(=C\C=C2/CCC[C@]3(C)[C@@H]([C@H](C)CCCC(C)(C)O)CC[C@@H]23)C[C@@H](O)C[C@@H]1O [calcitriol, 1,25-dihydroxycholecalciferol]	three orders of magnitude and more	strongly induced		
C=C1/C(=C\C=C2/CCC[C@]3(C)[C@@H]([C@H](C)/C=C/C=C/C(O)(CC)CC)CC[C@@H]23)C[C@@H](O)C[C@@H]1O [EB1089]			induction	~2000
